In assay [1] the test system is rabbit serum obtained by immunizing a rabbit with the SARS-CoV strain Frankfurt 1. Format: binding. Also on record: Binding of a rabbit serum to linear peptides / Binding of a rabbit serum to looped peptides / Rabbit serum linear peptides / Rabbit serum looped peptides / Binding of a rabbit serum to linear peptides of protein N of SARS-CoV Urbani (Rabbit serum linear peptides) / Binding of a rabbit serum to looped/cyclic peptides of protein N of SARS-CoV Urbani (Rabbit serum looped peptides): unit not given here.

Assay [2] has as its system control sera (pooled serum of ten healthy LUMC hospital workers; commercial negative donor pooled serum from the Dutch bloodbank). Format: binding, human. More on the design: Binding of Control serum LUMC to linear peptides / Binding of Control serum Blood-bank to linear peptides / Binding of Control serum LUMC to looped peptides / Binding of Control Serum Blood-Bank to Looped peptides / Binding of Control serum LUMC to linear peptides of the protein M of SARS-CoV Urbani / Binding of Control serum Blood-bank to linear peptides of the protein M of SARS-CoV Urbani / Binding of Control serum LUMC to looped peptides of the protein M of SARS-CoV Urbani / Binding of Control Serum Blood-Bank to Looped peptides of the protein M of SARS-CoV Urbani: unit not given here.

Assay [3] deals with antibodies in sera from SARS patients (sera 1a, 1b, 2, 6, 37, 62, London, SARS-yellow, SARS-green). The assay is classed as binding, human. More on the design: Binding of serum 6 to linear peptides of protein X1 of SARS-CoV Urbani / Binding of serum 37 to linear peptides of protein X1 of SARS-CoV Urbani / Binding of serum 6 to looped/cyclic peptide (PEPSCAN-ELISA) / Binding of serum 37 to looped/cyclic peptide (PEPSCAN-ELISA) / Binding of serum 37 to looped/cyclic peptides of protein X1 of SARS-CoV Urbani / Binding of serum 6 to linear peptides of protein X2 / Binding of serum 37 to linear peptides of protein X2 / Binding of serum 37 to looped/cyclic peptides of protein X2 of SARS-CoV Urbani / Binding of serum 6 to linear peptides of protein M of SARS-CoV Urbani / Binding of serum 37 to linear peptides of protein M of SARS-CoV Urbani / Binding of serum 6 to looped/cyclic peptides of protein M of SARS-CoV Urbani / Binding of serum 37 to looped/cyclic peptides of protein M of SARS-CoV Urbani / Binding of serum 6 to linear peptides of protein X3 of SARS-CoV Urbani / Binding of serum 37 to linear peptides of protein X3 of SARS-CoV Urbani / Binding of serum 37 to looped/cyclic peptides of protein X3 of SARS-CoV Urbani / Binding of serum 6 to linear peptides of protein X4 of SARS-CoV Urbani / Binding of serum 37 to linear peptides of protein X4 of SARS-CoV Urbani / Binding of serum 37 to looped/cyclic peptides of protein X4 of SARS-CoV Urbani / Binding of serum 6 to linear peptides of protein X5 of SARS-CoV Urbani / Binding of serum 37 to linear peptides of protein X5 of SARS-CoV Urbani / Binding of serum 37 to looped/cyclic peptides of protein X5 of SARS-CoV Urbani / Binding of serum 6 to linear peptides of protein N of SARS-CoV Urbani / Binding of serum 37 to linear peptides of protein N of SARS-CoV Urbani / Binding of serum 6 to linear peptide (PEPSCAN-ELISA) / Binding of serum 1a to looped/cyclic peptides of protein N of SARS-CoV Urbani / Binding of serum 1b to looped/cyclic peptides of protein N of SARS-CoV Urbani / Binding of serum 2 to looped/cyclic peptides of protein N of SARS-CoV Urbani / Binding of serum 6 to looped/cyclic peptides of protein N of SARS-CoV Urbani / Binding of serum 37 to looped/cyclic peptides of protein N of SARS-CoV Urbani / Binding of serum 62 to looped/cyclic peptides of protein N of SARS-CoV Urbani / Binding of serum London to looped/cyclic peptides of protein N of SARS-CoV Urbani / Binding of serum SARS-green to looped/cyclic peptides of protein N of SARS-CoV Urbani: unit not given here.

For PAGGALIARCWYLHE, in assay [1], the “Rabbit serum linear peptides” value was found to be 0.5 and the “Rabbit serum looped peptides” value amounted to 0.5. In addition, in assay [2], the “Binding of Control Serum Blood-Bank to Looped peptides” value came to 0.8, the “Binding of Control serum Blood-bank to linear peptides” value stood at 0.7, the “Binding of Control serum LUMC to linear peptides” value was 0.4 and the “Binding of Control serum LUMC to looped peptides” value worked out at 0.5. In addition, in assay [3], the “Binding of serum 1a to linear peptides of protein X5 of SARS-CoV Urbani” value is 0.8, the “Binding of serum 1a to looped/cyclic peptides of protein X5 of SARS-CoV Urbani” value was 0.8, the “Binding of serum 1b to linear peptides of protein X5 of SARS-CoV Urbani” value amounted to 0.9 and the “Binding of serum 1b to looped/cyclic peptides of protein X5 of SARS-CoV Urbani” value amounted to 0.6. In assay [3], the “Binding of serum 2 to linear peptides of protein X5 of SARS-CoV Urbani” value is 0.6, the “Binding of serum 2 to looped/cyclic peptides of protein X5 of SARS-CoV Urbani” value turned out to be 0.6, the “Binding of serum 6 to linear peptides of protein X5 of SARS-CoV Urbani” value worked out at 0.8 and the “Binding of serum 6 to looped/cyclic peptides of protein X5 of SARS-CoV Urbani” value is 0.4. Further, in assay [3], the “Binding of serum 37 to linear peptides of protein X5 of SARS-CoV Urbani” value worked out at 0.9, the “Binding of serum 37 to looped/cyclic peptides of protein X5 of SARS-CoV Urbani” value worked out at 0.7, the “Binding of serum 62 to linear peptides of protein X5 of SARS-CoV Urbani” value is 0.9 and the “Binding of serum 62 to looped/cyclic peptides of protein X5 of SARS-CoV Urbani” value came to 0.7. Further, in assay [3], the “Binding of serum London to linear peptides of protein X5 of SARS-CoV Urbani” value was 0.7, the “Binding of serum London to looped/cyclic peptides of protein X5 of SARS-CoV Urbani” value is recorded as 0.3, the “Binding of serum SARS-green to linear peptides of protein X5 of SARS-CoV Urbani” value is recorded as 0.9 and the “Binding of serum SARS-green to looped/cyclic peptides of protein X5 of SARS-CoV Urbani” value amounted to 0.6. Besides, in assay [3], the “Binding of serum SARS-yellow to linear peptides of protein X5 of SARS-CoV Urbani” value stood at 0.3 and the “Binding of serum SARS-yellow to looped/cyclic peptides of protein X5 of SARS-CoV Urbani” value was 0.5.
As to PCPSGTYEGNSPFHP, in assay [1], the “Rabbit serum linear peptides” value was 0.6 and the “Rabbit serum looped peptides” value worked out at 0.4. Besides, in assay [2], the “Binding of Control Serum Blood-Bank to Looped peptides” value is 0.7, the “Binding of Control serum Blood-bank to linear peptides” value is recorded as 0.6, the “Binding of Control serum LUMC to linear peptides” value is on record as 0.5 and the “Binding of Control serum LUMC to looped peptides” value was 0.9. In assay [3], the “Binding of serum 1a to linear peptides of protein X4 of SARS-CoV Urbani” value worked out at 0.7, the “Binding of serum 1a to looped/cyclic peptides of protein X4 of SARS-CoV Urbani” value came to 0.7, the “Binding of serum 1b to linear peptides of protein X4 of SARS-CoV Urbani” value was 0.5 and the “Binding of serum 1b to looped/cyclic peptides of protein X4 of SARS-CoV Urbani” value was found to be 0.1. In addition, in assay [3], the “Binding of serum 2 to linear peptides of protein X4 of SARS-CoV Urbani” value is recorded as 0.4, the “Binding of serum 2 to looped/cyclic peptides of protein X4 of SARS-CoV Urbani” value amounted to 0.7, the “Binding of serum 6 to linear peptides of protein X4 of SARS-CoV Urbani” value turned out to be 0.5 and the “Binding of serum 6 to looped/cyclic peptides of protein X4 of SARS-CoV Urbani” value came out at 0.5. For the same sequence, in assay [3], the “Binding of serum 37 to linear peptides of protein X4 of SARS-CoV Urbani” value stood at 0.7, the “Binding of serum 37 to looped/cyclic peptides of protein X4 of SARS-CoV Urbani” value came to 0.7, the “Binding of serum 62 to linear peptides of protein X4 of SARS-CoV Urbani” value is 0.7 and the “Binding of serum 62 to looped/cyclic peptides of protein X4 of SARS-CoV Urbani” value was found to be 0.7. Also, in assay [3], the “Binding of serum London to linear peptides of protein X4 of SARS-CoV Urbani” value is 0.7, the “Binding of serum London to looped/cyclic peptides of protein X4 of SARS-CoV Urbani” value is 0.3, the “Binding of serum SARS-green to linear peptides of protein X4 of SARS-CoV Urbani” value was 0.5 and the “Binding of serum SARS-green to looped/cyclic peptides of protein X4 of SARS-CoV Urbani” value was found to be 0.4. Also, in assay [3], the “Binding of serum SARS-yellow to linear peptides of protein X4 of SARS-CoV Urbani” value was determined as 0.7 and the “Binding of serum SARS-yellow to looped/cyclic peptides of protein X4 of SARS-CoV Urbani” value amounted to 0.4.
For PETNILLNVPLRGTI, in assay [1], the “Rabbit serum linear peptides” value was 0.1 and the “Rabbit serum looped peptides” value is listed as 0.3. For the same sequence, in assay [2], the “Binding of Control Serum Blood-Bank to Looped peptides of the protein M of SARS-CoV Urbani” value turned out to be 0.8, the “Binding of Control serum Blood-bank to linear peptides of the protein M of SARS-CoV Urbani” value is 0.8, the “Binding of Control serum LUMC to linear peptides of the protein M of SARS-CoV Urbani” value was 0.8 and the “Binding of Control serum LUMC to looped peptides of the protein M of SARS-CoV Urbani” value is 0.7. Moreover, in assay [3], the “Binding of serum 1a to linear peptides of protein M of SARS-CoV Urbani” value stood at 0.8, the “Binding of serum 1a to looped/cyclic peptides of protein M of SARS-CoV Urbani” value was determined as 0.6, the “Binding of serum 1b to linear peptides of protein M of SARS-CoV Urbani” value came out at 0.6 and the “Binding of serum 1b to looped/cyclic peptides of protein M of SARS-CoV Urbani” value was found to be 0.6. Besides, in assay [3], the “Binding of serum 2 to linear peptides of protein M of SARS-CoV Urbani” value stood at 0.7, the “Binding of serum 2 to looped/cyclic peptides of protein M of SARS-CoV Urbani” value was 0.7, the “Binding of serum 6 to linear peptides of protein M of SARS-CoV Urbani” value came to 0.4 and the “Binding of serum 6 to looped/cyclic peptides of protein M of SARS-CoV Urbani” value came to 0.9. In assay [3], the “Binding of serum 37 to linear peptides of protein M of SARS-CoV Urbani” value came to 0.9, the “Binding of serum 37 to looped/cyclic peptides of protein M of SARS-CoV Urbani” value is reported as 0.8, the “Binding of serum 62 to linear peptides of protein M of SARS-CoV Urbani” value amounted to 0.5 and the “Binding of serum 62 to looped/cyclic peptides of protein M of SARS-CoV Urbani” value stood at 0.8. In assay [3], the “Binding of serum London to linear peptides of protein M of SARS-CoV Urbani” value is reported as 0.4, the “Binding of serum London to looped/cyclic peptides of protein M of SARS-CoV Urbani” value is on record as 0.3, the “Binding of serum SARS-green to linear peptides of protein M of SARS-CoV Urbani” value is 0.5 and the “Binding of serum SARS-green to looped/cyclic peptides of protein M of SARS-CoV Urbani” value was found to be 0.0. In addition, in assay [3], the “Binding of serum SARS-yellow to linear peptides of protein M of SARS-CoV Urbani” value was 0.3 and the “Binding of serum SARS-yellow to looped/cyclic peptides of protein M of SARS-CoV Urbani” value was 0.6.
As for PFGWLVIGVAFLAVF, in assay [1], the “Binding of a rabbit serum to linear peptides” value is given as 1.1 and the “Binding of a rabbit serum to looped peptides” value came out at 0.5. Moreover, in assay [2], the “Binding of Control Serum Blood-Bank to Looped peptides” value stood at 0.5, the “Binding of Control serum Blood-bank to linear peptides” value is given as 0.5, the “Binding of Control serum LUMC to linear peptides” value came to 0.5 and the “Binding of Control serum LUMC to looped peptides” value came to 0.5. For the same sequence, in assay [3], the “Binding of serum 1a to linear peptides of protein X1 of SARS-CoV Urbani” value came out at 0.7, the “Binding of serum 1a to looped/cyclic peptide (PEPSCAN-ELISA)” value worked out at 0.5, the “Binding of serum 1b to linear peptides of protein X1 of SARS-CoV Urbani” value amounted to 0.5 and the “Binding of serum 1b to looped/cyclic peptide (PEPSCAN-ELISA)” value is listed as 0.4. In addition, in assay [3], the “Binding of serum 2 to linear peptides of protein X1 of SARS-CoV Urbani” value is on record as 0.5, the “Binding of serum 2 to looped/cyclic peptide (PEPSCAN-ELISA)” value is 0.5, the “Binding of serum 6 to linear peptides of protein X1 of SARS-CoV Urbani” value came to 0.4 and the “Binding of serum 6 to looped/cyclic peptide (PEPSCAN-ELISA)” value turned out to be 0.2. Further, in assay [3], the “Binding of serum 37 to linear peptides of protein X1 of SARS-CoV Urbani” value was 0.7, the “Binding of serum 37 to looped/cyclic peptide (PEPSCAN-ELISA)” value was 0.5, the “Binding of serum 62 to linear peptides of protein X1 of SARS-CoV Urbani” value is 0.6 and the “Binding of serum 62 to looped/cyclic peptide (PEPSCAN-ELISA)” value is listed as 0.5. Further, in assay [3], the “Binding of serum London to linear peptides of protein X1 of SARS-CoV Urbani” value is given as 0.3, the “Binding of serum London to looped/cyclic peptide (PEPSCAN-ELISA)” value is 0.2, the “Binding of serum SARS-green to linear peptides of protein X1 of SARS-CoV Urbani” value came to 0.3 and the “Binding of serum SARS-green to looped/cyclic peptide (PEPSCAN-ELISA)” value came out at 0.4. Besides, in assay [3], the “Binding of serum SARS-yellow to linear peptides of protein X1 of SARS-CoV Urbani” value came to 0.7 and the “Binding of serum SARS-yellow to looped/cyclic peptide (PEPSCAN-ELISA)” value is listed as 0.5.
